# From patent publication US12612386B2, “Heteroaryl-triazole compounds as pesticides” (Bayer Aktiengesellschaft, priority 2020, dated 2026)
# How the values were obtained:
# Assay type in all cases: in vivo
# [1] = test system: green peach aphid (Myzus persicae); experiment: Myzus persicae spray test (MYZUPE); conditions: 120 h, 100 g/ha, after 5 days
# Summary of the method: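 Percent aphid kill, with 0% meaning none killed, was read 5 days after spraying. The preparation (acetone–DMF solvent, water with 1000 ppm emulsifier) was applied to Brassica pekinensis leaf disks carrying mixed-instar green peach aphids.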
# [2] = test system: adult animals Blattella germanica strain PAULINIA; experiment: Blattella germanica test (BLTTGE surface treatment & contact assay); conditions: 24 hours after contact, read-out: efficacy (mortality); for mortality at 4 mg/m2: surface concentration 4 mg/m^2, 30 min exposure; for mortality at 20 mg/m2: surface concentration 20 mg/m^2, 30 min exposure
# Method: Blattella germanica Test (BLTTGE Surface Treatment & Contact Assay)
# (§1) Solvent: Aceton+2000 ppm rapeseed oil methyl ester (RME)
# In order to produce a sufficient, active ingredient containing solution it is necessary to solve the test compound in the solvent-mix (acetone at 2 mg/ml/RME 2000 ppm). This solution is pipetted onto a glazed tile and after evaporation of the acetone, adult animals of the species Blattella germanica strain PAULINIA are placed onto the dried surface. The exposure time is 30 minutes.
# Mortality in percent (%) is determined 24 hours after contact of the insects to the treated surface. 100% mortality means that all tested insects are dead, whereas 0% means that no insect died.
# [3] = test system: cattle tick larvae (Rhipicephalus microplus), strain Parkhurst, resistant against synthetic pyrethroids; experiment: Rhipicephalus (Boophilus) microplus in-vitro contact test, larval cattle tick; conditions: 5 μg/cm^2 (=500 g/ha), after 48 hours
# Summary of the method: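 Larvae (20–50 per tube) were exposed for 48 h at 27 °C and 85% relative humidity to dried acetone residues lining glass tubes, where 900 ppm corresponds to 5 μg/cm^2. Loss of negative geotaxis defined dead or moribund larvae, expressed as percent efficacy.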
# [4] = test system: adult cat fleas (Ctenocephalides felis); experiment: Ctenocephalides felis in-vitro contact test, adult cat flea; conditions: 5 μg/cm^2 (=500 g/ha), after 48 hours
# Summary of the method: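 After 48 h of room-temperature exposure in tubes whose walls carried dried compound residue (5 μg/cm^2, from 900 ppm acetone solution), adult cat fleas (5-10 per tube) were heat-challenged at 45-50° C up to 5 min. Fleas unable to climb away were counted dead or moribund, expressed as % efficacy.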
# [5] = test system: adult mosquitoes Culex quinquefasciatus strain P00; experiment: Culex quinquefasciatus test (CULXFA surface treatment & contact assay); conditions: 24 hours after contact, read-out: efficacy (mortality); for mortality at 4 mg/m2: surface concentration 4 mg/m^2, 30 min exposure; for mortality at 20 mg/m2: surface concentration 20 mg/m^2, 30 min exposure
# Method: Culex quinquefasciatus Test (CULXFA Surface Treatment & Contact Assay)
# as §1
# (§2) This solution is pipetted onto a glazed tile and after evaporation of the acetone, adult mosquitoes of the species Culex quinquefasciatus strain P00 are placed onto the dried surface. The exposure time is 30 minutes. Mortality in percent (%) is determined 24 hours after contact of the insects to the treated surface. 100% mortality means that all tested insects are dead, whereas 0% means that no insect died.
# [6] = test system: larvae of the southern green stink bug (Nezara viridula); experiment: whole plant or invertebrate; conditions: 96 h
# Summary of the method: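 Percent mortality of southern green stink bug larvae was recorded at day 4, with 100% meaning all dead. The larvae were placed on barley sprayed with the test solution. That solution was prepared from acetone/dimethylformamide concentrate diluted in emulsifier-containing water (1000 ppm).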
# [7] = test system: adult flies Musca domestica strain WHO-N; experiment: Musca domestica test (MUSCDO surface treatment & contact assay); conditions: 24 hours after contact, read-out: efficacy (mortality); for mortality at 4 mg/m2: surface concentration 4 mg/m^2, 30 min exposure; for mortality at 20 mg/m2: surface concentration 20 mg/m^2, 30 min exposure
# Method: Musca domestica Test (MUSCDO Surface Treatment & Contact Assay)
# as §1
# as §2, with “flies” for “mosquitoes”, “Musca domestica” for “Culex quinquefasciatus”, “WHO-N” for “P00”
# [8] = test system: adult mosquitoes Aedes aegypti strain MONHEIM; experiment: Aedes aegypti test (AEDSAE surface treatment & contact assay); conditions: 24 hours after contact, read-out: efficacy (mortality); for mortality at 4 mg/m2: surface concentration 4 mg/m^2, 30 min exposure; for mortality at 20 mg/m2: surface concentration 20 mg/m^2, 30 min exposure
# Method: Aedes aegypti Test (AEDSAE Surface Treatment & Contact Assay)
# as §1
# as §2, with “Aedes aegypti” for “Culex quinquefasciatus”, “MONHEIM” for “P00”
# [9] = test system: larvae of the banded cucumber beetle (Diabrotica balteata); experiment: Diabrotica balteata spray test; conditions: 168 h, 100 g/ha (=32 μg/well), after 7 days, read-out: efficacy (seedling growth)
# Summary of the method: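 Efficacy is seedling survival after 7 days, where 0% means no seedlings grew and 100% means growth equal to untreated, uninfested controls. Wheat seedlings, germinated on agar for 1 day, were sprayed with the aqueous emulsifier dilution (acetone/DMF solvent) and then exposed to 10–20 banded cucumber beetle larvae.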
# [10] = test system: fall armyworm larvae (Spodoptera frugiperda); experiment: whole plant or invertebrate; conditions: 168 h; for Emax at 20 g/ha: SPODFR, 20 g ai/ha, 7 dat (Table 3), read-out: % Efficacy
# Summary of the method: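 Percent kill of Spodoptera frugiperda caterpillars, read 7 days after infestation of dried, spray-treated Zea mays leaf pieces. Spray preparation: compound in acetone plus dimethylformamide, diluted with emulsifier-containing water.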
# [11] = test system: adult brown dog ticks (Rhipicephalus sanguineus); experiment: Rhipicephalus sanguineus in-vitro contact test, adult brown dog ticks; conditions: 48 h, read-out: efficacy (ticks dead or moribund)
# Summary of the method: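 Read-out: % efficacy as dead or moribund ticks, judged 48 h after exposure by failure to climb away from a 45-50° C heating plate within 5 min. Tubes were coated with acetone solution (900 ppm = 5 μg/cm^2 surface dose) and held 5-10 adults each at room temperature.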
# [12] = test system: brown planthopper (Nilaparvata lugens); experiment: Nilaparvata lugens spray test; conditions: 96 h
# Summary of the method: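 Rice plants (Oryza sativa) sprayed with compound formulated in acetone/DMF with alkylarylpolyglycol ether emulsifier (1000 ppm in diluting water), then infested with planthoppers. Mortality (%) scored after 4 days; 100% = all insects killed, 0% = none killed.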
# [13] = test system: green peach aphid (Myzus persicae); experiment: whole plant or invertebrate; conditions: 120 h, MYZUPE oral, 0.16 ppm, 5 dat (Table 3), read-out: % Efficacy
# Method: Solvent: 100 parts by weight acetone
# To produce a suitable preparation of active compound, 1 part by weight of active compound is mixed with the stated amount of solvent, and the concentrate is diluted with water to the desired concentration.
# 50 μL compound solution is filled in microtiter plates and 150 μL IPL41 insect medium (33%+15% sugar) is added to obtain a total volume of 200 μL per well. Afterwards the plates are sealed with parafilm through which a mixed population of the green peach aphid (Myzus persicae) can suck on the compound preparation.
# After 5 days mortality in % is determined. 100% means all aphids have been killed and 0% means none of the aphids have been killed.
# Myzus persicae—Oral Test (MYZUPE Oral)
Structure (SMILES),mortality at 100 g/ha [1] [%],mortality at 4 mg/m2 [2] [%],mortality at 20 mg/m2 [2] [%],efficacy (larvae dead or moribund) [3] [%],efficacy (fleas dead or moribund) [4] [%],mortality at 4 mg/m2 [5] [%],mortality at 100 g/ha [6] [%],mortality at 500 g/ha [6] [%],mortality at 4 mg/m2 [7] [%],mortality at 20 mg/m2 [7] [%],mortality at 4 mg/m2 [8] [%],mortality at 20 mg/m2 [8] [%],"pest or weed control at 32 µg/disc, 100 g/ha [9] [%]",mortality at 100 g/ha [10] [%],"pest or weed control at 5 µg/cm2, 500 g/ha [11] [%]",mortality at 500 g/ha [12] [%],mortality at 20 mg/m2 [5] [%],Emax at 0.16 ppm [13] [%],Emax at 20 g/ha [10] [%]
C[C@H](NC(=O)c1cc(Br)cc(OC(F)(F)F)c1)c1ncnn1-c1cc(C(N)=O)ncn1 [I-21],90,80 to 100,80 to 100,100,100,80 to 100,100,100,80 to 100,80 to 100,80 to 100,80 to 100,100,100,100,–,–,–,–
C[C@H](NC(=O)c1cc(Cl)cc(OC(F)(F)F)c1)c1ncnn1-c1cc(C(N)=O)ncn1 [I-49],100,80 to 100,80 to 100,100,100,80 to 100,100,100,80 to 100,80 to 100,80 to 100,80 to 100,100,100,80,100,80 to 100,–,–
C[C@H](NC(=O)c1cc(Br)cc(OC(F)F)c1)c1ncnn1-c1cc(C(N)=O)ncn1 [I-51],90,80 to 100,80 to 100,100,100,80 to 100,100,100,80 to 100,80 to 100,80 to 100,80 to 100,100,100,100,100,80 to 100,–,–
CNC(=O)c1cc(-n2ncnc2[C@H](C)NC(=O)c2cc(Cl)cc(OC(F)(F)F)c2)ncn1 [I-73],70,80 to 100,80 to 100,100,100,80 to 100,–,100,80 to 100,80 to 100,80 to 100,80 to 100,100,100,100,100,80 to 100,–,–
CNC(=O)c1cc(-n2ncnc2[C@H](C)NC(=O)c2cc(Br)cc(OC(F)(F)F)c2)ncn1 [I-74],90,80 to 100,80 to 100,100,100,80 to 100,–,100,80 to 100,80 to 100,80 to 100,80 to 100,80,100,100,100,80 to 100,–,–
C[C@H](NC(=O)c1cc(OC(F)F)cc(OC(F)F)c1)c1ncnn1-c1cc(C(N)=O)ncn1 [I-93],100,80 to 100,80 to 100,–,–,80 to 100,–,100,80 to 100,80 to 100,80 to 100,80 to 100,100,100,–,100,80 to 100,–,–
C[C@H](NC(=O)c1cc(OC(F)(F)F)cc(OC(F)(F)F)c1)c1ncnn1-c1cc(C(N)=O)ncn1 [I-102],100,80 to 100,80 to 100,100,100,80 to 100,–,100,80 to 100,80 to 100,80 to 100,80 to 100,100,100,80,90,80 to 100,–,–
"C[C@H](NC(=O)c1cc(Cl)cc(S(C)(=O)=O)c1)c1ncnn1-c1ccncn1 [I-146 Known from WO 2019197468, reference compound]",–,–,–,–,–,–,–,–,–,–,–,–,–,–,–,–,–,0,33
"C[C@H](NC(=O)c1cc(Cl)cc(S(C)(=O)=O)c1)c1ncnn1-c1cc(C#N)ccn1 [I-148 Known from WO 2019197468, reference compound]",–,–,–,–,–,–,–,–,–,–,–,–,–,–,–,–,–,0,33
